Assays:
MCF7 = assay: MTT cell viability, MCF7; type: cell-based; conditions: Homo sapiens, MCF7; 48 h, MTT, 1.25–160 μM; read-out: IC50 MCF7
Protocol: (§1) Four different breast cells lines were used in this study: MCF-10A (non-tumorigenic), MCF7 (ER+ BC), MDA-MB453 (HER2+ BC) and MDA-MB231 (TNBC). All lineages were obtained from the American Type Culture Collection (ATCC; Manassas, VA, USA) and maintained at a temperature of 37 °C according to the supplier’s recommendations. Only MDA-MB231 cells were not kept in an atmosphere of 5% CO2. MCF-10A was grown in Dulbecco’s Modified Eagle’s Medium (DMEM F12, Gibco, ThermoFisher Scientific, Waltham, MA, USA) supplemented with 20 ng/mL epidermal growth factor (Gibco, ThermoFisher Scientific, Waltham, MA, USA), 0.5 μg/mL hydrocortisone (Sigma-Aldrich, Sigma-Aldrich, St. Louis, MO, USA) and 10 μg/mL insulin (Gibco, ThermoFisher Scientific, Waltham, MA, USA). MCF7 was cultivated in Roswell Park Memorial Institute Medium (RPMI-1640, Gibco, ThermoFisher Scientific, Waltham, MA, USA), MDA-MB453 in IMDM and MDA-MB231 in Leibovitz’s medium (L-15, Gibco, ThermoFisher Scientific, Waltham, MA, USA). All media were supplemented with 10% fetal bovine serum (FBS, Gibco, ThermoFisher Scientific, Waltham, MA, USA) and 50 µg/mL of gentamicin (Cultilab, Campinas, SP, Brazil). The cells were confirmed to be free of mycoplasma and passaged using a 0.25% trypsin-EDTA solution when confluency reached 80–90%.
(§2) Cell viability was determined by spectrophotometric quantification of MTT (3-[4,5-dimethyl-thiazol-2-yl]-2,5-diphenyltetrazolium bromide—Invitrogen. Waltham, MA, USA) reduction to formazan crystals. Cells were seeded at the density of 1 × 10^4 cells/well (MCF-10A, MDA-MB453), 1.5 × 10^4 cells/well (MDA-MB231) and 3 × 10^3 cells/well (MCF7) in 96-well culture dishes and incubated with different concentrations of the compounds (1.25, 2.5, 5, 10, 20, 40, 80 and 160 µM) for 48 h. The medium was than replaced by MTT solution (0.5 mg/mL) and plates were kept at 37 °C for 4 h. After the aspiration of the media, the formazan crystals were diluted with 100 μL of dimethyl-sulfoxide (DMSO)/well and the absorbance at 570 nm was measured using a spectrophotometer (Thermo Plate TP-Reader, Waltham, MA, USA). Cytotoxicity was calculated using the following formula: Cytotoxicity (%) = [absorbance of cells treated with the compounds/absorbance of cells treated with DMSO) × 100]. The IC50 was determined for each compound and was defined as the concentration required to inhibit 50% of cell growth, compared to the control sample (cells treated with DMSO 0.05%).
(§3) Data were presented as the mean ± standard deviation (SD) and analyzed using GraphPad Prism 9.0 software (GraphPad Software Inc., La Jolla, CA, USA). All data were assayed in triplicate. Statistical analysis was performed using one-way ANOVA, Tukey´s HSD post hoc test and Student’s t-test. The IC50 was calculated using non-linear regression and the selectivity index (SI) was calculated by the ratio between the IC50 values corresponding to the non-tumor cell lineage (MCF-10A) and the IC50 values corresponding to the BC cell lines. Statistical significance was accepted at p values < 0.05.

MDA-MB-231 = assay: MTT cell viability, MDA-MB-231; type: cell-based
Protocol: as §1, §2, §3

MDA-MB-453 = assay: MTT cell viability, MDA-MB-453; type: cell-based
Protocol: as §1, §2, §3

[1] = ABTS radical scavenging assay; conditions: 40 µM (greatest activity among 10, 20, 40, 80 and 160 µM)
Protocol: The ABTS^+ radical cation scavenging efficacy for compound 3 was determined according to the method described earlier with some modifications. Briefly, an equal amount of 7 mM ABTS^+ (2,20-azino-bis(3-ethylbenzothiazoline-6-sulfonic acid)) stock solution was mixed and kept in the dark at room temperature for 12 h with a 140 mM potassium persulfate stock solution. The ABTS^+ was then diluted in ethanol until it reached a UV absorption value of 0.700 (±0.200) at 734 nm. Compound 3 (10, 20, 40, 80 and 160 µM) was mixed with ABTS^+ in 96-well plates, and absorbance was read at 415 nm using a microplate reader (Thermo Plate TP-Reader, ThermoFisher Scientific, Waltham, MA, USA). The scavenging capability of ABTS^+ radical was expressed as Trolox (0.1 to 2 mM) equivalents.

CDH1 = assay: qPCR, CDH1 expression in MCF7; type: cell-based; conditions: vs untreated cells
Protocol: Total RNA was extracted using Trizol reagent (Invitrogen), according to the manufacturer’s protocol. The quality of extracted RNA was verified by the spectrophotometric readings at 260 and 280 nm (Nanodrop 1000-ThermoFisher), and the first strand of cDNA was synthesized from 1 µg of total RNA via reverse transcription using GoScript™ Reverse Transcription Mix (Promega, Madison, WI, EUA). qPCR analysis was performed using 5.0 μL of Power SYBR Green PCR Master Mix (Applied Biosystems, Carlsbad, CA, USA) and run on a StepOnePlus Systems (Applied Biosystems, Carlsbad, CA, USA) device with the following cycling parameters: 40 cycles of 95 °C for 10 s and 60 °C for 30 s. The comparative Cq was used to find the relative expression of CDH1 (E-caderina), ENTPD1 (ectonucleoside triphosphate diphosphohydrolase 1), ENTPD2 (ectonucleoside triphosphate diphosphohydrolase 2), ENTPD3 (ectonucleoside triphosphate diphosphohydrolase 3), ENTPD5 ([…]) and KRT10 (keratin 10) genes, after relative standard curve optimization. β-2-microglobulin (β2M) was used as a reference gene. The primer sequences are described in Table 3.

O=C(c1ccc(-n2cnnn2)cc1)N1CCN(S(=O)(=O)c2ccc(Cl)cc2)CC1 [Compound 3, (4-(1H-tetrazol-1-yl)phenyl)(4-((4-chlorophenyl)sulfonyl)piperazin-1-yl)methanone]
IC50 (MCF7): 4.48 µM | IC50 (MDA-MB-231; Homo sapiens, MDA-MB-231, 48 h, MTT, 1.25–160 μM, read-out: IC50 MDA-MB-231): 83 µM | SI MDA-MB-231 (MDA-MB-231; IC50 MCF10A / IC50 MDA-MB-231): >1.93 | IC50 (MDA-MB-453; Homo sapiens, MDA-MB-453, 48 h, MTT, 1.25–160 μM, read-out: IC50 MDA-MB-453): 80 µM | SI MDA-MB-453 (MDA-MB-453; IC50 MCF10A / IC50 MDA-MB-453): >2.00 | ABTS inhibition of free radicals [1]: 40% | Fold Change CDH1 mRNA (CDH1; MCF7, 1.125 µM): 1.874 | Fold Change CDH1 mRNA (CDH1; MCF7, 2.25 µM): 1.045

From article PMC11433764, “A Novel Compound from the Phenylsulfonylpiperazine Class: Evaluation of In Vitro Activity on Luminal Breast Cancer Cells” (Molecules, 2024)
